The text below walks through data of ChEMBL document CHEMBL5625245, “Novel ProTide prodrugs of 5-fluoro-2'-deoxyuridine for the treatment of liver cancer” (Eur J Med Chem, 2023).

Molecules are shown by their SMILES. ≈ marks a conversion by molar mass, not a printed value.

A short description of data set [1]: Solubility of the compound in 5% DMSO/10% PEG300/85% saline at 25 degreeC by HPLC analysis. It is filed as physicochemical.
A short description of data set [2]: Solubility of the compound in 5% DMSO/95% saline at 25 degreeC by HPLC analysis. The class given is physicochemical.
Data set [3] deals with Bel-7402. Kind of data set: Antiproliferative activity against human Bel-7402 cells assessed as reduction in cell viability at 20 uM measured after 48 hrs by MTT assay relative to control. The class given is functional. (In general: Tetrazolium assays rely on reduction of a dye to a coloured formazan, in cell work by metabolically active cells.)
Data set [4] relates to Bel-7402. The data set is described as follows: Antiproliferative activity against human Bel-7402 cells assessed as reduction in cell viability measured after 48 to 72 hrs by MTT assay. It is filed as functional, cell-based.
Data set [5] is described as follows: Metabolic stability in human plasma assessed as half life at 1 mg/ml measured upto 72 hrs by HPLC analysis. It is filed as ADME, cell-free.
Data set [6] is described as follows: Solubility of the compound in 5% DMSO/10% Tween80/85% saline at 25 degreeC by HPLC analysis. It is filed as physicochemical.
The nature of data set [7]: Toxicity in orthotopic mouse assessed as effect on body weight at 60 mg/kg, iv administered twice daily for 18 days. Particulars: in vivo, 432 h, time 18 day. The class given is organism-based.
The nature of data set [8]: Solubility of the compound in 5% PEG300/95% saline at 25 degreeC by HPLC analysis. It is filed as physicochemical.
The nature of data set [9]: Solubility of the compound in 5% DMSO/8% Tween80/87% saline at 25 degreeC by HPLC analysis. The class given is physicochemical.
The nature of data set [10]: Solubility of the compound in 2% DMSO/10% tween80/88% saline at 25 degreeC by HPLC analysis. It is filed as physicochemical.
Data set [11] is described as follows: Solubility of the compound in 5% PBS/95% saline at 25 degreeC by HPLC analysis. It is filed as physicochemical.
A short description of data set [12]: Antiproliferative activity against human NCM460 cells assessed as reduction in cell viability measured after 48 to 72 hrs by MTT assay. The class given is toxicity, cell-based.
Data set [13] can be described thus: Selectivity index, ratio of IC50 for human L02 cells to IC50 for human HepG2 cells. The class given is toxicity. The settings on record: L02 cells and HepG2 cells, read-out: Ratio IC50.
A short description of data set [14]: Toxicity in orthotopic mouse assessed as effect on kidney at 60 mg/kg, iv administered twice daily for 18 days by H and E staining based analysis. It is filed as organism-based. The settings on record: in vivo, 432 h, time 18 day.
Data set [15] concerns HepG2. Kind of data set: Antiproliferative activity against human HepG2 cells assessed as reduction in cell viability at 20 uM measured after 48 hrs by MTT assay relative to control. It is filed as functional.
A short description of data set [16]: Toxicity in orthotopic mouse assessed as effect on heart at 60 mg/kg, iv administered twice daily for 18 days by H and E staining based analysis. It is filed as organism-based. Particulars: in vivo, 432 h, time 18 day.
Data set [17] is described as follows: Toxicity in orthotopic mouse assessed as effect on liver at 60 mg/kg, iv administered twice daily for 18 days by H and E staining based analysis. The class given is organism-based. Particulars: in vivo, 432 h, time 18 day.
Data set [18] deals with HepG2. Kind of data set: Antitumor activity against human HepG2 cells xenografted in orthotopic mouse model assessed as average number of tumor at 60 mg/kg, iv administered twice daily for 18 days in presence of 5-Fluorouracil (reference value: 49+/3.6 mM). It is filed as functional. The settings on record: time 18 day.
The nature of data set [19]: Toxicity in orthotopic mouse assessed as change in liver weight at 60 mg/kg, iv administered twice daily for 18 days. It is filed as organism-based. Particulars: in vivo, 432 h, time 18 day.
A short description of data set [20]: Solubility of the compound in 100% saline at 25 degreeC by HPLC analysis. The class given is physicochemical.
A short description of data set [21]: Antiproliferative activity against human L02 cells assessed as reduction in cell viability measured after 48 to 72 hrs by MTT assay. It is filed as toxicity, cell-based.
Data set [22] can be described thus: Solubility of the compound in 5% DMSO/10% cremophor EL/85% saline at 25 degreeC by HPLC analysis. The class given is physicochemical.
Data set [23] is described as follows: Toxicity in orthotopic mouse assessed as effect on lung at 60 mg/kg, iv administered twice daily for 18 days by H and E staining based analysis. It is filed as organism-based. Particulars: in vivo, 432 h, time 18 day.
The nature of data set [24]: Solubility of the compound in 2% DMSO/8% tween80/90% saline at 25 degreeC by HPLC analysis. It is filed as physicochemical.
Data set [25] in a line: Metabolic stability in rat plasma assessed as half life at 1 mg/ml measured upto 72 hrs by HPLC analysis. It is filed as ADME, cell-free.
Data set [26] in a line: Selectivity index, ratio of IC50 for human L02 cells to IC50 for human Bel-7402 cells. It is filed as toxicity. The settings on record: L02 cells and Bel-7402 cells, read-out: Ratio IC50.
Data set [27] deals with HepG2. Kind of data set: Antitumor activity against human HepG2 cells xenografted in orthotopic mouse model assessed as tumor growth inhibition at 60 mg/kg, iv administered twice daily for 18 days in presence of 5-Fluorouracil relative to control. It is filed as functional. The settings on record: HepG2, 432 h, time 18 day, read-out: TGI. Background: Xenograft models place foreign cells or tissue in a host animal.

A short description of data set [28]: Toxicity in orthotopic mouse assessed as effect on drug tolerance at 60 mg/kg, iv administered twice daily for 18 days. The class given is organism-based. The settings on record: in vivo, 432 h, time 18 day.
The nature of data set [29]: Toxicity in orthotopic mouse assessed as effect on spleen at 60 mg/kg, iv administered twice daily for 18 days by H and E staining based analysis. The class given is organism-based. Particulars: in vivo, 432 h, time 18 day.
Data set [30] can be described thus: Metabolic stability in rat liver homogenates assessed as half life at 1 mg/ml measured after 4 hrs by HPLC analysis. It is filed as ADME, tissue-based.
Data set [31] is described as follows: Drug metabolism in rat liver homogenate assessed as (2S)-2-[[[(2R,3S,5R)-3-[(2S)-2-(tert-butoxycarbonylamino)propanoyl]oxy-5-(5-fluoro-2,4-dioxo-pyrimidin-1-yl)tetrahydrofuran-2-yl]methoxy-hydroxy-phosphoryl]amino]propanoic acid formation measured upto 90 mins. The class given is ADME, tissue-based. The settings on record: tissue homogenate, 1.5 h.
Data set [32] has as its system HepG2. Kind of data set: Antiproliferative activity against human HepG2 cells assessed as reduction in cell viability measured after 48 to 72 hrs by MTT assay. The class given is functional, cell-based.
Data set [33] in a line: Drug metabolism in rat liver homogenate assessed as formation of (2S)-2-[[[(2R,3S,5R)-3-[(2S)-1-[(2S)-2-(tert-butoxycarbonylamino)-3-methyl-butanoyl]pyrrolidine-2-carbonyl]oxy-5-(5-fluoro-2,4-dioxo-pyrimidin-1-yl)tetrahydrofuran-2-yl]methoxy-hydroxy-phosphoryl]amino]propanoic acid measured after 20 mins. It is filed as ADME, tissue-based. Particulars: tissue homogenate.

The nature of data set [34]: Drug metabolism in rat liver homogenate assessed as formation of (2S)-2-[[[(2R,3S,5R)-3-[(2S)-1-[(2S)-2-(tert-butoxycarbonylamino)-3-methyl-butanoyl]pyrrolidine-2-carbonyl]oxy-5-(5-fluoro-2,4-dioxo-pyrimidin-1-yl)tetrahydrofuran-2-yl]methoxy-hydroxy-phosphoryl]amino]propanoic acid measured after 120 mins. The class given is ADME, tissue-based. The settings on record: tissue homogenate, 2 h.

The test system of data set [35] is HepG2. The data set is described as follows: Antitumor activity against human HepG2 cells xenografted in orthotopic mouse model assessed as average number of tumor at 15 mg/kg, iv administered twice daily for 18 days (reference value: 49+/3.6 mM). It is filed as functional. The settings on record: time 18 day.
Data set [36] deals with HepG2. Kind of data set: Antitumor activity against human HepG2 cells xenografted in orthotopic mouse model assessed as tumor growth inhibition at 15 mg/kg, iv administered twice daily for 18 days relative to control. Particulars: HepG2, 432 h, time 18 day, read-out: TGI. It is filed as functional.

For `CC(C)OC(=O)[C@H](C)N[P@](=O)(OC[C@H]1O[C@@H](n2cc(F)c(=O)[nH]c2=O)C[C@@H]1OC(=O)[C@H](C)NC(=O)OC(C)(C)C)Oc1ccccc1`, the solubility (in general, how much of the substance goes into solution per volume) is < 1000 µg/mL in data set [1]; < 1000 µg/mL in data set [2]; > 10000 µg/mL in data set [6]; < 1000 µg/mL in data set [8]; 5000 µg/mL (≈ 7.28 mM) in [9]; > 10000 µg/mL in data set [10]. The solubility is < 1000 µg/mL in data set [11], < 1000 µg/mL in data set [20], 5000 µg/mL (≈ 7.28 mM) in data set [22] and < 5000 µg/mL in data set [24]. The Activity was 82.19% in the data set with Bel-7402 [3]; “Non-Toxic” in data set [7]; “Non-Toxic” in [14]; 83.61% in the data set on HepG2 [15]; “Non-Toxic” in data set [16]; “Non-Toxic” in data set [17]. Moreover, the Activity entry is recorded as “Toxic” in [19], “Non-Toxic” in data set [23], “Non-Toxic” in [28] and “Non-Toxic” in [29]. Moreover, the IC50 (as a rule, the concentration that inhibits the measured activity by half) was 0.79 µM in the data set on Bel-7402 [4], > 100 µM in data set [12], > 100 µM in data set [21] and 0.42 µM in the data set on HepG2 [32]. For the same compound, the half-life (commonly the time needed for the level to fall by half in the phase considered) at 1 mg/ml is > 48 h in [5], > 48 h in data set [25] and 0.16 h in data set [30]. The figures for the selectivity ratio in [13] and in data set [26] were 310 and 165, respectively. In addition, the tumour count in the data set with HepG2 [18] was 12. The inhibition in vivo at 60 mg/kg with HepG2 [27] was found to be 75.5%. In addition, the Drug metabolism entry in data set [31] is “Metabolite_Detected”.

For `CC(C)OC(=O)[C@H](C)N[P@](=O)(OC[C@H]1O[C@@H](n2cc(F)c(=O)[nH]c2=O)C[C@@H]1OC(=O)[C@@H]1CCCN1C(=O)[C@@H](NC(=O)OC(C)(C)C)C(C)C)Oc1ccccc1`, the solubility in data set [1] is < 1000 µg/mL; in [2], < 1000 µg/mL; in data set [6] it was > 10000 µg/mL; in data set [8], < 1000 µg/mL; in [9], 5000 µg/mL (≈ 6.16 mM); in [10], > 10000 µg/mL. Further, the solubility in data set [11] is < 1000 µg/mL; in data set [20], < 1000 µg/mL; in [22] it was 5000 µg/mL (≈ 6.16 mM); in data set [24] it was < 5000 µg/mL. For the same compound, the Drug metabolism result in data set [33] and in [34] was “Metabolite_Detected” each time. Also, the Activity was >70% in the data set on Bel-7402 [3]; “Non-Toxic” in data set [7]; “Non-Toxic” in data set [14]; 75.24% with HepG2 [15]; “Non-Toxic” in [16]; “Non-Toxic” in data set [17]. Further, the Activity entry in [19] is “Toxic”; in data set [23] it was “Non-Toxic”; in data set [28], “Non-Toxic”; in data set [29], “Non-Toxic”. Further, the IC50 in the data set with Bel-7402 [4] is 0.81 µM; in data set [12] it was > 100 µM; in data set [21], > 100 µM; with HepG2 [32], 0.54 µM. Moreover, the half-life at 1 mg/ml is > 48 h in data set [5], > 48 h in data set [25] and 1.63 h in data set [30]. Besides, the selectivity ratio in [13] stood at 307; in [26] it was 205. Besides, in the data set with HepG2 [18], the tumour count worked out at 35. The inhibition in vivo at 60 mg/kg in the data set with HepG2 [27] stood at 28.6%.

Regarding `O=c1[nH]cc(F)c(=O)[nH]1` [FLUOROURACIL], the IC50 in the data set on Bel-7402 [4] was 36.5 µM; in data set [12], > 100 µM; in data set [21] it was > 100 µM; with HepG2 [32] it was > 100 µM. The Activity with HepG2 [35] is given as 49 mM; in the data set on HepG2 [15] it was 8.31%. For the same compound, the inhibition in vivo at 15 mg/kg in the data set on HepG2 [36] was 0%.
